Assay type in all cases: functional
Assay [1] concerns Mycobacterium tuberculosis. Put plainly: Antitubercular activity against wild-type isoniazid-resistant Mycobacterium tuberculosis harboring katG mutant after 5 days by microplate alamar blue assay. Background: Alamar Blue is a resazurin reagent that responds to reducing activity.
Assay [2] deals with Mycobacterium tuberculosis. Put plainly: Antitubercular activity against Mycobacterium tuberculosis SR 2571/0215 harboring katG mutant after 5 days by microplate alamar blue assay.
Assay [3] has as its system Mycobacterium tuberculosis. Put plainly: Antitubercular activity against isoniazid and rifampicin-resistant Mycobacterium tuberculosis T113/09 harboring katG and rpoB mutant after 5 days by microplate alamar blue assay.

SMILES strings stand for the structures. In brackets after ≈: the same amount, converted by molar mass.

As for `CC(=O)Nc1ccc(Cl)cc1C(F)(F)C(=O)NNC(=O)c1ccncc1`, the MIC (in general, the smallest concentration in the dilution series that meets the test's criterion for growth inhibition) in assay [1] was determined as 136.6 µM (≈ 52.3 µg/mL).

As to `CC(=O)Nc1ccccc1C(=O)C(=O)NNC(=O)c1ccncc1`, the MIC was found to be 19.2 µM (≈ 6.27 µg/mL) in assay [1], 38.3 µM (≈ 12.5 µg/mL) in assay [2] and 38.3 µM (≈ 12.5 µg/mL) in assay [3].

For the compound `CC(=O)Nc1ccccc1C(F)(F)C(=O)NNC(=O)c1ccncc1`, the MIC in assay [1] amounted to 143.7 µM (≈ 50.1 µg/mL); in assay [2] it was 287.4 µM (≈ 100 µg/mL); in assay [3], 287.4 µM (≈ 100 µg/mL).

Turning to `CC(=O)Nc1ccc(F)cc1C(F)(F)C(=O)NNC(=O)c1ccncc1`, the MIC in assay [1] came out at 130.9 µM (≈ 47.9 µg/mL).

Regarding `O=C(CCl)Nc1ccccc1C(=O)C(=O)NNC(=O)c1ccncc1`, the MIC is 69.4 µM (≈ 25 µg/mL) in assay [2] and 34.7 µM (≈ 12.5 µg/mL) in assay [3].

As to `CC(=O)Nc1ccc(C)cc1C(F)(F)C(=O)NNC(=O)c1ccncc1`, the figures for the MIC in assay [1], in assay [2] and in assay [3] were 138.1 µM (≈ 50 µg/mL), >276.2 µM and 276.2 µM (≈ 100 µg/mL), respectively.

As to `CC(=O)Nc1ccc(C)cc1C(=O)C(=O)NNC(=O)c1ccncc1`, the MIC in assay [2] and in assay [3] was 36.7 µM (≈ 12.5 µg/mL) each time.

With `NNC(=O)c1ccncc1` [ISONIAZID], the values for the MIC in assay [1], in assay [2] and in assay [3] were >80 µM, 116.8 µM (≈ 16 µg/mL) and 58.4 µM (≈ 8.01 µg/mL), respectively.

The values are drawn from ChEMBL document CHEMBL4196010, “New hydrazides derivatives of isoniazid against Mycobacterium tuberculosis: Higher potency and lower hepatocytotoxicity” (Eur J Med Chem, 2018).
